Assay results from patent publication US8895745B2, “Bicyclic heterocyclic compounds as FGFR inhibitors” (Astex Therapeutics Limited, priority 2006, dated 2014).
pIC50: −log10 of the molar value. Where a name gives a salt, the structure may show the parent alone.

tested on: LP-1 cell line; experiment: Cell-based pERK ELISA method, LP-1 cells; details: Homo sapiens, LP-1, read-out: IC50 less than 1 μM or at least 50% inhibition at a concentration of 1 μM, LP-1 pERK ELISA

Compound | pIC50
CC(NC(=O)Nc1cccc(-c2cnc3cc(-c4ccc(F)cc4)ccn23)c1)C(F)(F)F (centres unmarked) [Example 246, 1-{3-[7-(4-Fluoro-phenyl)-imidazo[1,2-a]pyridin-3-yl]-phenyl}-3-(2,2,2-trifluoro-1-methyl-ethyl)-urea] | > 6.00
CNC(=O)c1cccc(-c2ccn3c(-c4cccc(NC(=O)NCC(F)(F)F)c4)cnc3c2)c1 [Example 247, N-Methyl-3-(3-{3-[3-(2,2,2-trifluoro-ethyl)-ureido]-phenyl}-imidazo[1,2-a]pyridin-7-yl)-benzemide Formate] | > 6.00
NS(=O)(=O)c1cccc(-c2ccn3c(-c4cccc(NC(=O)NCC(F)(F)F)c4)cnc3c2)c1 [Example 249, 3-(3-{3-[3-(2,2,2-Trifluoro-ethyl)-ureido]-phenyl}-imidazo[1,2-a]pyridin-7-yl)-benzene-sulfonamide formate] | > 6.00
O=C(NCC(F)(F)F)Nc1cccc(-c2cnc3cc(-c4cccc(C(=O)N5CCNCC5)c4)ccn23)c1 [Example 250, 1-(3-{7-[3-(Piperazine-1-carbonyl)-phenyl]-imidazo[1,2-a]pyridin-3-yl}-phenyl)-3-(2,2,2-trifluoro-ethyl)-urea hydrochloride] | > 6.00
CS(=O)(=O)c1cccc(-c2ccn3c(-c4cccc(NC(=O)NCC(F)(F)F)c4)cnc3c2)c1 [Example 251, 1-{3-[7-(3-Methane-sulfonyl-phenyl)-imidazo[1,2-a]pyridin-3-yl]-phenyl}-3-(2,2,2-trifluoro-ethyl)-urea formate] | > 6.00
O=C(NCC(F)(F)F)Nc1ccc(F)c(-c2cnc3cc(Cl)ccn23)c1 [Example 252, 1-[3-(7-Chloro-imidazo[1,2-a]pyridin-3-yl)-4-fluoro-phenyl]-3-(2,2,2-trifluoro-ethyl)-urea] | > 6.00
O=C(NCC(F)(F)F)Nc1ccc(F)c(-c2cnc3cc(-c4ccc(F)cc4)ccn23)c1 [Example 253, 1-{4-Fluoro-3-[7-(4-fluoro-phenyl)-imidazo[1,2-a]pyridin-3-yl]-phenyl}-3-(2,2,2-trifluoro-ethyl)-urea] | > 6.00
O=C(NCC(F)(F)F)Nc1cccc(-c2cnc3cc(-c4cc(F)cc(F)c4)ccn23)c1 [Example 254, 1-{3-[7-(3,5-Difluoro-phenyl)-imidazo[1,2-a]pyridin-3-yl]-phenyl}-3-(2,2,2-trifluoro-ethyl)-urea] | > 6.00
CCCn1cc(-c2ccn3c(-c4cccc(NC(=O)NCC(F)(F)F)c4)cnc3c2)cn1 [Example 256, 1-{3-[7-(1-Propyl-1H-pyrazol-4-yl)-imidazo[1,2-a]pyridin-3-yl]-phenyl}-3-(2,2,2-trifluoro-ethyl)-urea formate] | > 6.00
O=C(NCC(F)(F)F)Nc1cc(CO)cc(-c2cnc3cc(-c4ccc(F)cc4)ccn23)c1 [Example 258, 1-{3-[7-(4-Fluoro-phenyl)-imidazo[1,2-a]pyridin-3-yl]-5-hydroxymethyl-phenyl}-3-(2,2,2-trifluoro-ethyl)-urea] | > 6.00
CCc1nnc(-c2ccn3c(-c4cccc(NC(=O)NCC(F)(F)F)c4)cnc3c2)s1 [Example 260, 1-{3-[7-(5-Ethyl-[1,3,4]thiadiazol-2-yl)-imidazo[1,2-a]pyridin-3-yl]-phenyl}-3-(2,2,2-trifluoro-ethyl)-urea] | > 6.00
CCNC(=O)c1cccc(-c2ccn3c(-c4cccc(NC(=O)NCC(F)(F)F)c4)cnc3c2)c1 [Example 261, N-Ethyl-3-(3-{3-[3-(2,2,2-trifluoro-ethyl)-ureido]-phenyl}-imidazo[1,2-a]pyridin-7-yl)-benzamide Formate] | > 6.00
CN(C)S(=O)(=O)n1cc(-c2ccn3c(-c4cccc(NC(=O)NCC(F)(F)F)c4)cnc3c2)cn1 [Example 262, 4-(3-{3-[3-(2,2,2-Trifluoro-ethyl)-ureido]-phenyl}-imidazo[1,2-a]pyridin-7-yl)-pyrazole-1-sulfonic acid dimethylamide] | > 6.00
COCCNC(=O)c1cccc(-c2ccn3c(-c4cccc(NC(=O)NCC(F)(F)F)c4)cnc3c2)c1 [Example 263, N-(2-Methoxy-ethyl)-3-(3-{3-[3-(2,2,2-trifluoro-ethyl)-ureido]-phenyl}-imidazo[1,2-a]pyridin-7-yl)-benzamide] | > 6.00
O=C(NCC(F)(F)F)Nc1cccc(-c2cnc3cc(-c4cccc(C(=O)N5CCC5)c4)ccn23)c1 [Example 264, 1-(3-{7-[3- (Azetidine 1-carbonyl)-phenyl]-imidazo[1,2-a]pyridin-3-yl}-phenyl)-3-(2,2,2-trifluoro-ethyl)-urea] | > 6.00
CCNC(=O)Nc1cc(-c2cnc3cc(-c4ccc(F)cc4)ccn23)ccc1F [Example 266, 1-Ethyl-3-{2-fluoro-5-[7-(4-fluoro-phenyl)-imidazo[1,2-a]pyridin-3-yl]-phenyl}-urea] | > 6.00
CC(C)NC(=O)c1cccc(-c2ccn3c(-c4cccc(NC(=O)NCC(F)(F)F)c4)cnc3c2)c1 [Example 267, N-Isopropyl-3-(3-{3-[3-(2,2,2-trifluoro-ethyl)-ureido]-phenyl}-imidazo[1,2-a]pyridin-7-yl)-benzamide] | > 6.00

Compound | pIC50
O=C(NCC(F)(F)F)Nc1cccc(-c2cnc3cc(-c4ccc(F)cc4F)ccn23)c1 [Example 269, 1-{3-[7-(2,4-Difluoro-phenyl)-imidazo[1,2-a]pyridin-3-yl]-phenyl}-3-(2,2,2-trifluoro-ethyl)-urea] | > 6.00
Cc1ccc(-c2ccn3c(-c4cccc(NC(=O)NCC(F)(F)F)c4)cnc3c2)s1 [Example 270, 1-{3-[7-(5-Methyl-thiophen-2-yl)-imidazo[1,2-a]pyridin-3-yl]-phenyl}-3-(2,2,2-trifluoro-ethyl)-urea formate] | > 6.00
COc1ccc(-c2ccn3c(-c4cccc(NC(=O)NCC(F)(F)F)c4)cnc3c2)cc1 [Example 271, 1-{3-[7-(4-Methoxy-phenyl)-imidazo[1,2-a]pyridin-3-yl]-phenyl}-3-(2,2,2-trifluoro-ethyl)-urea] | > 6.00
O=C(NCC(F)(F)F)Nc1cccc(-c2cnc3cc(-c4ccc(Cl)cc4)ccn23)c1 [Example 273, 1-{3-[7-(4-Chloro-phenyl)-imidazo[1,2-a]pyridin-3-yl]-phenyl}-3-(2,2,2-trifluoro-ethyl)-urea] | > 6.00
O=C(NCC(F)(F)F)Nc1cccc(-c2cnc3cc(-c4cccc(Cl)c4)ccn23)c1 [Example 278] | > 6.00
COc1cccc(-c2ccn3c(-c4cccc(NC(=O)NCC(F)(F)F)c4)cnc3c2)c1 [Example 279, 1-{3-[7-(3-Methoxy-phenyl)-imidazo[1,2-a]pyridin-3-yl]-phenyl}-3-(2,2,2-trifluoro-ethyl)-urea] | > 6.00
O=C(NCC(F)(F)F)Nc1cccc(-c2cnc3cc(-c4ccc(Cl)c(F)c4)ccn23)c1 [Example 280, 1-{3-[7-(4-Chloro-3-fluoro-phenyl)-imidazo[1,2-a]pyridin-3-yl]-phenyl}-3-(2,2,2-trifluoro-ethyl)-urea] | > 6.00
O=C(NCC(F)(F)F)Nc1cccc(-c2cnc3cc(-c4cccc(C(=O)N5CCCNCC5)c4)ccn23)c1 [Example 283, 1-(3-{7-[3-([1,4] Diazepane-1-carbonyl)-phenyl]-imidazo[1,2-a]pyridin-3-yl}-phenyl)-3-(2,2,2-trifluoro-ethyl)-urea Hydrochloride] | > 6.00
O=C(NCC(F)(F)F)Nc1cccc(-c2cnc3cc(-c4ccc(F)c(Cl)c4)ccn23)c1 [Example 284, 1-{3-[7-(3-Chloro-4-fluoro-phenyl)-imidazo[1,2-a]pyridin-3-yl]-phenyl}-3-(2,2,2-trifluoro-ethyl)-urea] | > 6.00
O=C(NCC(F)(F)F)Nc1cccc(-c2cnc3cc(-c4ccc(C5CNCCN5)cc4)ccn23)c1 (centres unmarked) [Example 296, 1-{3-[7-(4-Piperazin-2-yl-phenyl)-imidazo[1,2-a]pyridin-3-yl]-phenyl}-3-(2,2,2-trifluoro-ethyl)-urea hydrochloride] | > 6.00
O=C(NCC(F)(F)F)Nc1cccc(-c2cnc3cc(-c4nnco4)ccn23)c1 [Example 330, 1-[3-(7-[1,3,4]Oxadiazol-2-yl-imidazo[1,2-a]pyridin-3-yl)-phenyl]-3-(2,2,2-trifluoro-ethyl)-urea] | > 6.00
Cn1c(-c2ccn3c(-c4cccc(NC(=O)NCC(F)(F)F)c4)cnc3c2)n[nH]c1=S [Example 332, 1-{3-[7-(4-Methyl-5-thioxo-4,5-dihydro-1H-[1,2,4]triazol-3-yl)-imidazo[1,2-a]pyridin-3-yl]-phenyl}-3-(2,2,2-trifluoro-ethyl)-urea] | > 6.00
O=C(NCC(F)(F)F)Nc1cccc(-c2cnc3cc(C4CC4)ccn23)c1 [Example 334, 1-[3-(7-Cyclopropyl-imidazo[1,2-a]pyridin-3-yl)-phenyl]-3-(2,2,2-trifluoro-ethyl)-urea Formate] | > 6.00
COc1ccn2c(-c3cccc(NC(=O)NCC(F)(F)F)c3)cnc2c1 [Example 336, 1-[3-(7-Methoxy-imidazo[1,2-a]pyridin-3-yl)-phenyl]-3-(2,2,2-trifluoro-ethyl)-urea Formate] | > 6.00
CCOc1ccn2c(-c3cccc(NC(=O)NCC(F)(F)F)c3)cnc2c1 [Example 337, 1-[3-(7-Ethoxy-imidazo[1,2-a]pyridin-3-yl)-phenyl]-3-(2,2,2-trifluoro-ethyl)-urea Formate] | > 6.00
N#Cc1ccn2c(-c3cccc(NC(=O)NCC(F)(F)F)c3)cnc2c1 [Example 341, 1-[3-(7-Cyano-imidazo[1,2-a]pyridin-3-yl)-phenyl]-3-(2,2,2-trifluoro-ethyl)-urea] | > 6.00

same assay, conditions: Homo sapiens, LP-1, read-out: LP-1 pERK ELISA (μM)

Compound | IC50
Cc1nnc(-c2ccn3c(-c4cccc(NC(=O)NCC(F)(F)F)c4)cnc3c2)s1 [Example 310, 1-{3-[7-(5-Methyl-[1,3,4]-thiadiazol-2-yl)-imidazo[1,2-a]pyridin-3-yl]-phenyl}-3-(2,2,2-trifluoro-ethyl)-urea] | 0.0042 µM
Cc1nnc(-c2ccn3c(-c4cccc(NC(=O)NCC(F)(F)F)c4)cnc3c2)o1 [Example 329, 1-{3-[7-(5-Methyl-[1,3,4]oxadiazol-2-yl)-imidazo[1,2-a]pyridin-3-yl]-phenyl}-3-(2,2,2-trifluoro-ethyl)-urea] | 0.143 µM
